Laboratory results as given in ChEMBL document CHEMBL1201862, “PubChem BioAssay data set” (2004).
The source made the active and inactive calls. The rule behind the calls is not given here.

Tests used:
HEK293 = assay: cells; assay type: functional, cell-based; settings: Homo sapiens
[1] = target: T1, Nuclear receptor subfamily 0 group B member 1 (Homo sapiens, UniProt P51843); assay: Luminescence-based cell-based high throughput dose response assay for inhibitors of the orphan nuclear receptor subfamily 0, group B, member 1 (DAX1; NR0B1). [Related pubchem assays (depositor defined):AID504766, AID504790]; assay type: functional
T1 sequence (P51843 whole entry): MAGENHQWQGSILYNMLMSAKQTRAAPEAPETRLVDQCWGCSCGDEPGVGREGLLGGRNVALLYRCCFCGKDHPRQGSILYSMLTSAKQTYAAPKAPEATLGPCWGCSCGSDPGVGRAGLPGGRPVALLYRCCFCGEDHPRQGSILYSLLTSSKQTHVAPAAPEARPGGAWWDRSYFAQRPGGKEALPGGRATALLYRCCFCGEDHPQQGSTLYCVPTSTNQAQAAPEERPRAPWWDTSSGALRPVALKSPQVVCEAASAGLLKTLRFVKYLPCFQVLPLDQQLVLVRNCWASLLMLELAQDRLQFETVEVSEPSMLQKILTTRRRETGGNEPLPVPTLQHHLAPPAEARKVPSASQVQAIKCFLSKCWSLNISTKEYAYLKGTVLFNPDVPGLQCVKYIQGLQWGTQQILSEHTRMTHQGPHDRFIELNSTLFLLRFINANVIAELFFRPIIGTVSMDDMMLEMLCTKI

| Compound | IC50 (HEK293) | IC50 [1] |
| --- | --- | --- |
| COc1ccc(N2CCN(C(=O)C3CCN(S(=O)(=O)c4ccc(C)cc4)CC3)CC2)cc1 | > 67.5 µM (inactive) | > 67.5 µM (inactive) |
| CN(Cc1ccccc1Cl)C(=O)CCNC(=O)c1ccco1 | > 67.5 µM (inactive) | > 67.5 µM (inactive) |
| CCC[C@H]1CN(c2ccccc2)C(=O)[C@@H]1CC(=O)Nc1ccc(Br)cc1 | > 67.5 µM (inactive) | > 67.5 µM (inactive) |
